Assay results reported in the CheMixHub ionic liquid set.

Assay: xn = mol fraction of the nth substance listed

C=Cn1cc[n+](CCCC)c1.NCC(=O)[O-] + O
101.3 kPa
Details | electrical conductivity [S/m] | viscosity [mPa·s]
293.15 K, x1 = 0.5 | – | 59.3
293.15 K, x1 = 0.9 | – | 1599
303.15 K, x1 = 0.5 | 2.58 | 43.4
303.15 K, x1 = 1 | 0.009 | 9300
308.15 K, x1 = 0.1 | 1.11 | –
308.15 K, x1 = 0.7 | 1.99 | –
308.15 K, x1 = 0.9 | 0.48 | –
308.15 K, x1 = 1 | 0.012 | –
318.15 K, x1 = 0.5 | 3.58 | –
333.15 K, x1 = 0.3 | – | 10.48
333.15 K, x1 = 1 | – | 1753
343.15 K, x1 = 0.3 | – | 10.08
343.15 K, x1 = 1 | – | 1089
353.15 K, x1 = 0.5 | – | 21.66
353.15 K, x1 = 0.9 | – | 520
353.15 K, x1 = 1 | – | 730

CC(=O)[O-].CCOCCn1cc[n+](C)c1 + O
100 kPa
Details | electrical conductivity [S/m] | viscosity [mPa·s]
293.15 K, x1 = 0.9129 | 0.288 | 35.75
293.15 K, x1 = 0.9447 | 0.25 | 36.71
298.15 K, x1 = 0.9447 | 0.31 | 28.98
303.15 K, x1 = 0.9447 | 0.394 | 23.12
308.15 K, x1 = 0.8821 | 0.586 | 17.7
313.15 K, x1 = 0.8524 | 0.764 | 14.07
313.15 K, x1 = 0.8821 | 0.719 | 14.45
313.15 K, x1 = 1 | 0.568 | 15.8

CC(=O)[O-].COCCn1cc[n+](C)c1 + O
100 kPa
Details | electrical conductivity [S/m] | viscosity [mPa·s]
293.15 K, x1 = 0.8395 | 0.408 | 54.79
293.15 K, x1 = 0.8942 | 0.338 | 58.87
303.15 K, x1 = 0.8942 | 0.495 | 32.66
308.15 K, x1 = 0.8659 | 0.636 | 25.93
318.15 K, x1 = 0.8659 | 0.925 | 17.73

CCCCC(CC)COC(=O)CC(C(=O)OCC(CC)CCCC)S(=O)(=O)[O-].CCCC[n+]1ccn(C)c1 (configuration not stated) + O
99.6 kPa, x1 = 0.8687
Details | viscosity [mPa·s]
293.15 K | 3442
303.15 K | 1454

CCCCCCCCCCCCCCCC[n+]1ccccc1.[Cl-] + O
Details | electrical conductivity [S/m]
293.15 K, 100 kPa, x1 = 3.6e-06 | 0.0028
293.15 K, 100 kPa, x1 = 7.21e-06 | 0.005
293.15 K, 100 kPa, x1 = 1.442e-05 | 0.0091
298.15 K, 100 kPa, x1 = 3.6e-06 | 0.0028
298.15 K, 100 kPa, x1 = 7.21e-06 | 0.0051
298.15 K, 100 kPa, x1 = 1.081e-05 | 0.0076
298.15 K, 100 kPa, x1 = 1.442e-05 | 0.0098
298.15 K, 100 kPa, x1 = 9.009e-05 | 0.02
303.15 K, 100 kPa, x1 = 3.6e-06 | 0.003
303.15 K, 100 kPa, x1 = 7.21e-06 | 0.0057
303.15 K, 100 kPa, x1 = 1.081e-05 | 0.0083
303.15 K, 100 kPa, x1 = 9.009e-05 | 0.021
308.15 K, 100 kPa, x1 = 3.6e-06 | 0.0034
308.15 K, 100 kPa, x1 = 7.21e-06 | 0.0065
308.15 K, 100 kPa, x1 = 1.081e-05 | 0.0095
308.15 K, 101 kPa, x1 = 5.4e-07 | 0.000222
308.15 K, 101 kPa, x1 = 9e-07 | 0.00029
308.15 K, 101 kPa, x1 = 1.62e-06 | 0.0004
308.15 K, 101 kPa, x1 = 2.34e-06 | 0.000465
308.15 K, 101 kPa, x1 = 2.88e-06 | 0.000581
308.15 K, 101 kPa, x1 = 3.78e-06 | 0.000705
308.15 K, 101 kPa, x1 = 4.5e-06 | 0.000794
308.15 K, 101 kPa, x1 = 5.59e-06 | 0.000937
308.15 K, 101 kPa, x1 = 6.85e-06 | 0.00106
308.15 K, 101 kPa, x1 = 7.93e-06 | 0.001222
308.15 K, 101 kPa, x1 = 9.01e-06 | 0.001438
308.15 K, 101 kPa, x1 = 1.009e-05 | 0.00159
308.15 K, 101 kPa, x1 = 1.117e-05 | 0.001701
308.15 K, 101 kPa, x1 = 1.333e-05 | 0.00209
308.15 K, 101 kPa, x1 = 1.55e-05 | 0.00219
308.15 K, 101 kPa, x1 = 1.766e-05 | 0.00237
308.15 K, 101 kPa, x1 = 1.982e-05 | 0.00248
308.15 K, 101 kPa, x1 = 2.18e-05 | 0.00259
308.15 K, 101 kPa, x1 = 2.397e-05 | 0.00264
308.15 K, 101 kPa, x1 = 2.595e-05 | 0.00278
308.15 K, 101 kPa, x1 = 3.009e-05 | 0.00297
308.15 K, 101 kPa, x1 = 3.406e-05 | 0.00314
308.15 K, 101 kPa, x1 = 3.802e-05 | 0.00328
308.15 K, 101 kPa, x1 = 4.18e-05 | 0.00342
308.15 K, 101 kPa, x1 = 4.559e-05 | 0.00356
308.15 K, 101 kPa, x1 = 4.919e-05 | 0.00369
308.15 K, 101 kPa, x1 = 5.099e-05 | 0.00375
308.15 K, 101 kPa, x1 = 6e-05 | 0.00403
308.15 K, 101 kPa, x1 = 6.847e-05 | 0.00432
308.15 K, 101 kPa, x1 = 7.658e-05 | 0.00454
308.15 K, 101 kPa, x1 = 8.433e-05 | 0.00477
308.15 K, 101 kPa, x1 = 9.189e-05 | 0.00497
308.15 K, 101 kPa, x1 = 9.91e-05 | 0.00516
308.15 K, 101 kPa, x1 = 0.000106 | 0.00533
308.15 K, 101 kPa, x1 = 0.0001126 | 0.0055
313.15 K, 100 kPa, x1 = 9.009e-05 | 0.023
